Laboratory results reported in patent US11066368B2, “Process for the preparation and particle size reduction of pirfenidone” (Laurus Labs Limited, priority 2016, dated 2021).

Tests used:
Assay type in all cases: physicochemical
[1] = Particle size distribution of unmilled input pirfenidone; conditions: input material before wet milling (Reference Example 5)
Protocol: (§1) As used herein, the term “particle size distribution” is expressed in terms of D90, D50 and D10, which corresponds to the diameter of 90 percent by volume of the particles, 50 percent by volume of the particles and 10 percent by volume of the particles are present, respectively.
(§2) The particle size distribution of pirfenidone is measured utilizing: Instrument model: Malvern; Mastersizer 3000; particle refraction index of sample: 1.700; Absorption: 0.01 and Analysis model: general purpose, normal sensitivity, non-spherical particles.
Dissolving crude Pirfenidone (50 g) in ethyl acetate (100 mL) at 65-75° C. and the reaction mass was treated with activated carbon (5 g) and filtered through a short bed of Hyflo. The filtrate was partially concentrated, under reduced pressure while maintain temperature below 60° C. The mixture was gradually allowed to cool to 30±5° C. and then stirred for another 30-60 min. The suspension was again allowed to cool to 0-5° C. and maintained for another 2-3 h, at the same temperature. The precipitated material was filtered and then dried at 60±5° C., for 6-8 h, to afford Pirfenidone as white colored powder (HPLC purity 99.9%; dimer content 0.03%). Yield: 45 g.

[2] = Minimum ignition energy test by MIKE3; conditions: dust cloud, dried at 50° C., sieved through 63μ
Protocol: This test was performed based on international test method VDI 2263 part 1.2.5 using MIKE3. Pirfenidone was dried at 50° C. under vacuum, sieved through 63μ sieve. The product was converted into a dust cloud in glass cylindrical tube with compressed air. The spark for ignition was provided with moving electrodes assembly at different energy levels from 1 mJ to 1000 mJ. The energy just sufficient to ignite the dust under ignition was determined. This ignition energy was then successively halved with variation of the dust concentration and the ignition delay time in a series of tests until no ignition takes place in at least 10 successive experiments. The minimum ignition energy MIE lies between the lowest energy value at which ignition occurred and at the energy value at which no ignition observed for 10 successive experiments. The recommendations for interpreting MIE results are based on energy levels available on MIKE 3 apparatus. According to usual practice, MIE can be ranked as follow: […]

[3] = Particle size distribution after wet milling with high speed homogenizer (Silverson L5M-A); conditions: water
Protocol: as §1, §2
Water (300 mL) and Pirfenidone (100 gr; Particle size distribution: D10: 1330 μm; D50: 1950 μm and D90: 2840 μm) were charged into reaction vessel at 25° C. to 35° C. and was placed High speed stirrer/Homogenizer into the reaction mass till required particle size was obtained at 25° C. to 35° C. Particle size distribution of the sample with different time interval was monitored by collecting the sample from reaction mass. After achieving the required particle size, stirred the reaction mixture for 30-60 min at 25° C. to 35° C. Further, the reaction mixture temperature was allowed to cool to 0° C. to 5° C. and stirred for 2-3 hrs at same temperature. Filter the solid and washed with the wet cake with chilled water (100 mL), dried the solid in an oven under vacuum at 60° C. for 4-6 hours.
The following examples were performed using the above described process with different rpm and time; the obtained results are tabulated below: […]

[4] = Dust explosion test by Modified Hartmann Apparatus; parameters: key to Dust explosion class (overall): St0H: No fire or explosion; St1H: Dust fire or mild explosion; St2H: Violent explosion; conditions: for Dust explosion Class: sieved through 63μ
Protocol: This test was performed based on procedures from VDI 2263, Part 1 (Section 2.1.1), “Dust fires and dust explosions; hazards, assessment, protective measures”, using a Modified Hartmann Apparatus. Pirfenidone was dried at 50° C. under vacuum, sieved through 63μ sieve. Weighed amount of product was charged into a modified hartmann tube of 1.2 liter volume. The product was converted into a dust cloud in glass cylindrical tube with compressed air and electrodes with continuous spark was used as ignition source to ignite the dust cloud. Based on dust fire or extent of opening of the hinged cover rating 0, 1 or 2 are assigned.

[5] = 2000 RPM, stirring time 120 min
[6] = 2000 RPM, stirring time 240 min

Structure (SMILES): Cc1ccc(=O)n(-c2ccccc2)c1 [Pirfenidone, 5-methyl-1-phenyl-2-1(H)-pyridone]
- Particle size distribution D10 [1]: 1330 μm
- Particle size distribution D50 [1]: 1950 μm
- Particle size distribution D90 [1]: 2840 μm
- Es [2]: 1.7 mJ
- Minimum ignition energy MIE [2]: 1.7 mJ
- PSD D10 ([3]; 2000 RPM, stirring time 30 min): 24 μm
- PSD D50 ([3]; 2000 RPM, stirring time 30 min): 82 μm
- PSD D90 ([3]; 2000 RPM, stirring time 30 min): 230 μm
- PSD D10 ([3]; 2000 RPM, stirring time 60 min): 24 μm
- PSD D50 ([3]; 2000 RPM, stirring time 60 min): 88 μm
- PSD D90 ([3]; 2000 RPM, stirring time 60 min): 200 μm
- PSD D10 [3, 5]: 21 μm
- PSD D50 [3, 5]: 75 μm
- PSD D90 [3, 5]: 165 μm
- PSD D10 [3, 6]: 21 μm
- PSD D50 [3, 6]: 71 μm
- PSD D90 [3, 6]: 154 μm
- PSD D10 ([3]; 5000 RPM, stirring time 60 min): 17 μm
- PSD D50 ([3]; 5000 RPM, stirring time 60 min): 48 μm
- PSD D90 ([3]; 5000 RPM, stirring time 60 min): 108 μm
- PSD D10 ([3]; 7000 RPM, stirring time 60 min): 13 μm
- PSD D50 ([3]; 7000 RPM, stirring time 60 min): 42 μm
- PSD D90 ([3]; 7000 RPM, stirring time 60 min): 91 μm
- Dust explosion Class ([4]; Wt. of sample 120 mg, eq. dust concentration 100 g/m3): 1
- Dust explosion Class ([4]; Wt. of sample 240 mg, eq. dust concentration 200 g/m3): 2
- Dust explosion class (overall) ([4]; summary of safety studies): St2H
